Laboratory results taken from PubChem BioAssay AID256 (DTP/NCI, 2004).
Values joined by “and” are separate entries in the source; they are usually repeats but may differ in a detail not shown here. Equal entries are not always repeated. Toxic doses and inconclusive results are not listed.

Test system: CD2F1 mice, L1210 leukemia ip, survival T/C
Experiment: NCI In Vivo Anticancer Drug Screen. Data for tumor model L1210 Leukemia (intraperitoneal) in CD2F1 (CDF1) mice
Conditions: higher = longer survival
In short: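 Transplantable tumor in mice; compound-treated vs vehicle-treated groups. Read-out = treated/control ratio of the measured endpoint.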

[1] = endpoint: mean survival time, dose: 100.0 mg/kg/injection, schedule: Q01DX009 (ip), vehicle: saline with Tween-80
[2] = endpoint: mean survival time, dose: 100.0 mg/kg/injection, schedule: Q04DX003 (ip), vehicle: saline with Tween-80
[3] = endpoint: mean survival time, dose: 200.0 mg/kg/injection, schedule: Q01DX009 (ip), vehicle: saline with Tween-80
[4] = endpoint: mean survival time, dose: 200.0 mg/kg/injection, schedule: Q04DX003 (ip), vehicle: saline with Tween-80
[5] = endpoint: mean survival time, dose: 400.0 mg/kg/injection, schedule: Q01DX009 (ip), vehicle: saline with Tween-80
[6] = endpoint: mean survival time, dose: 400.0 mg/kg/injection, schedule: Q04DX003 (ip), vehicle: saline with Tween-80
[7] = endpoint: mean survival time, dose: 100.0 mg/kg/injection, schedule: Q01DX001 (ip), vehicle: saline with Tween-80
[8] = endpoint: mean survival time, dose: 400.0 mg/kg/injection, schedule: Q01DX001 (ip), vehicle: saline with Tween-80
[9] = endpoint: mean survival time, dose: 100.0 mg/kg/injection, schedule: Q04DX003 (ip), vehicle: saline
[10] = endpoint: mean survival time, dose: 200.0 mg/kg/injection, schedule: Q04DX003 (ip), vehicle: saline

CCOC(=O)/C(C#N)=C1/C=Cc2ccccc2N1
T/C [1]: 102 % of control
T/C [2]: 109 % of control
T/C [3]: 96 % of control
T/C [4]: 97 % of control
T/C [5]: 96 % of control
T/C [6]: 97 % of control

O=C(COc1ccccc1)Nc1ccc([N+](=O)[O-])cc1
T/C [2]: 100 % of control
T/C [4]: 99 % of control
T/C [6]: 100 % of control

COC(CNC1=C(C)C(=O)C2=C(C1=O)[C@H](COC(N)=O)[C@]1(OC)[C@@H]3N[C@@H]3CN21)OC
T/C (endpoint: mean survival time, dose: 1.5 mg/kg/injection, schedule: Q01DX001 (ip), vehicle: water): 118 % of control
T/C (endpoint: mean survival time, dose: 3.0 mg/kg/injection, schedule: Q01DX001 (ip), vehicle: water): 119 % of control and 109 % of control
T/C (endpoint: mean survival time, dose: 6.0 mg/kg/injection, schedule: Q01DX001 (ip), vehicle: water): 119 % of control
T/C (endpoint: mean survival time, dose: 24.0 mg/kg/injection, schedule: Q01DX001 (ip), vehicle: water): 151 % of control and 296 % of control
T/C (endpoint: mean survival time, dose: 48.0 mg/kg/injection, schedule: Q01DX001 (ip), vehicle: water): 86 % of control

N#Cc1ccccc1NN=NCc1ccccc1
T/C [7]: 97 % of control
T/C [8]: 90 % of control

Cc1ccc2c(c1)C1(SC(C)C(=O)N1c1ccc(Cl)cc1)C(=O)N2 (stereo unspecified)
T/C (endpoint: median survival time, dose: 25.0 mg/kg/injection, schedule: Q01DX005 (ip), vehicle: saline with Tween-80): 107 % of control
T/C (endpoint: median survival time, dose: 50.0 mg/kg/injection, schedule: Q01DX005 (ip), vehicle: saline with Tween-80): 113 % of control
T/C (endpoint: median survival time, dose: 100.0 mg/kg/injection, schedule: Q01DX005 (ip), vehicle: saline with Tween-80): 116 % of control
T/C (endpoint: median survival time, dose: 200.0 mg/kg/injection, schedule: Q01DX005 (ip), vehicle: saline with Tween-80): 116 % of control
T/C (endpoint: median survival time, dose: 400.0 mg/kg/injection, schedule: Q01DX005 (ip), vehicle: saline with Tween-80): 123 % of control

CCOC(Cc1cccc2ccccc12)(c1ccccc1)c1ccccc1
T/C [2]: 101 % of control
T/C [4]: 98 % of control
T/C [6]: 101 % of control

CCOc1ccc(Nc2cc(=O)[nH]c(=O)[nH]2)cc1
T/C [7]: 95 % of control
T/C (endpoint: mean survival time, dose: 200.0 mg/kg/injection, schedule: Q01DX001 (ip), vehicle: saline with Tween-80): 93 % of control
T/C [8]: 95 % of control

Cc1cc(C)c([S-])c(C)c1.[Cu+]
T/C (endpoint: mean survival time, dose: 4.7 mg/kg/injection, schedule: Q04DX003 (ip), vehicle: saline): 94 % of control
T/C (endpoint: mean survival time, dose: 9.4 mg/kg/injection, schedule: Q04DX003 (ip), vehicle: saline): 94 % of control

CCCCCCCC/C=C\CCCCCCCC(=O)OCCCCC
T/C (endpoint: mean survival time, dose: 100.0 mg/kg/injection, schedule: Q04DX002 (ip), vehicle: saline with Tween-80): 87 % of control
T/C (endpoint: mean survival time, dose: 200.0 mg/kg/injection, schedule: Q04DX002 (ip), vehicle: saline with Tween-80): 95 % of control
T/C (endpoint: mean survival time, dose: 400.0 mg/kg/injection, schedule: Q04DX002 (ip), vehicle: saline with Tween-80): 106 % of control

N=C(N)SCSC(=N)N
T/C [9]: 100 % of control
T/C [10]: 103 % of control

CCCCC/C(C)=C(/C#N)C(=O)OCC
T/C (endpoint: mean survival time, dose: 75.0 mg/kg/injection, schedule: Q01DX001 (ip), vehicle: saline): 97 % of control
T/C (endpoint: mean survival time, dose: 150.0 mg/kg/injection, schedule: Q01DX001 (ip), vehicle: saline): 96 % of control
T/C (endpoint: mean survival time, dose: 300.0 mg/kg/injection, schedule: Q01DX001 (ip), vehicle: saline): 97 % of control

CCCCOC(=O)CCC(NC(=O)c1ccc(N(C)Cc2cnc3nc(N)nc(N)c3n2)cc1)C(=O)O (stereo unspecified)
T/C (endpoint: mean survival time, dose: 0.19 mg/kg/injection, schedule: Q01DX009 (ip), vehicle: water): 112 % of control
T/C (endpoint: mean survival time, dose: 0.38 mg/kg/injection, schedule: Q01DX009 (ip), vehicle: water): 120 % of control
T/C (endpoint: mean survival time, dose: 1.5 mg/kg/injection, schedule: Q01DX009 (ip), vehicle: water): 159 % of control
T/C (endpoint: mean survival time, dose: 3.0 mg/kg/injection, schedule: Q01DX009 (ip), vehicle: water): 180 % of control
T/C (endpoint: mean survival time, dose: 6.0 mg/kg/injection, schedule: Q01DX009 (ip), vehicle: water): 86 % of control

COc1cc(C(C2=C(O)c3ccccc3C(=O)C2=O)C2=C(O)c3ccccc3C(=O)C2=O)cc(Br)c1O
T/C (endpoint: mean survival time, dose: 100.0 mg/kg/injection, schedule: Q01DX009 (ip), vehicle: alcohol): 101 % of control
T/C (endpoint: mean survival time, dose: 200.0 mg/kg/injection, schedule: Q01DX009 (ip), vehicle: alcohol): 93 % of control

O=[N+]([O-])O.[NH2-].[NH2-].[NH2-].[NH2-].[OH-].[OH-].[Pt+4].[Pt+4]
T/C (endpoint: mean survival time, dose: 2.5 mg/kg/injection, schedule: Q04DX003 (ip), vehicle: water): 89 % of control
T/C (endpoint: mean survival time, dose: 5.0 mg/kg/injection, schedule: Q04DX003 (ip), vehicle: water): 97 % of control
T/C (endpoint: median survival time, dose: 0.15 mg/kg/injection, schedule: Q04DX003 (ip), vehicle: water): 97 % of control
T/C (endpoint: median survival time, dose: 0.31 mg/kg/injection, schedule: Q04DX003 (ip), vehicle: water): 97 % of control

N=C(N)SSC(=N)N
T/C (endpoint: mean survival time, dose: 50.0 mg/kg/injection, schedule: Q01DX009 (ip), vehicle: saline): 96 % of control
T/C (endpoint: mean survival time, dose: 100.0 mg/kg/injection, schedule: Q01DX009 (ip), vehicle: saline): 100 % of control

COC(=O)C(C(=O)OC(C)C)C(=O)OC(C)C
T/C (endpoint: mean survival time, dose: 50.0 mg/kg/injection, schedule: Q01DX001 (ip), vehicle: Klucel (hydroxypropylcellulose) (HPC)): 105 % of control
T/C (endpoint: mean survival time, dose: 100.0 mg/kg/injection, schedule: Q01DX001 (ip), vehicle: Klucel (hydroxypropylcellulose) (HPC)): 96 % of control
T/C (endpoint: mean survival time, dose: 200.0 mg/kg/injection, schedule: Q01DX001 (ip), vehicle: Klucel (hydroxypropylcellulose) (HPC)): 99 % of control

CC1CC2(C)C(CC1=O)CC(C)C1C2CCC2(C)C1CCC2(C)O (stereo unspecified)
T/C [2]: 102 % of control
T/C [4]: 102 % of control
T/C [6]: 100 % of control

O=S(=O)(/C(=C\c1ccccc1)c1ccccc1)c1ccccc1
T/C [9]: 90 % of control
T/C (endpoint: mean survival time, dose: 200.0 mg/kg/injection, schedule: Q01DX009 (ip), vehicle: saline): 90 % of control
T/C [10]: 92 % of control
T/C (endpoint: mean survival time, dose: 400.0 mg/kg/injection, schedule: Q01DX009 (ip), vehicle: saline): 88 % of control
T/C (endpoint: mean survival time, dose: 400.0 mg/kg/injection, schedule: Q04DX003 (ip), vehicle: saline): 90 % of control

CCCCCCCCCCCCCCCCCCCCCC(=O)OC
T/C [1]: 102 % of control
T/C [2]: 89 % of control
T/C [3]: 103 % of control
T/C [4]: 90 % of control
T/C [5]: 100 % of control
T/C [6]: 87 % of control

O=[N+]([O-])c1cccc(C2=NNC(c3cccc([N+](=O)[O-])c3)=NN2)c1
T/C (endpoint: median survival time, dose: 50.0 mg/kg/injection, schedule: Q01DX001 (ip), vehicle: saline with Tween-80): 88 % of control
T/C (endpoint: median survival time, dose: 100.0 mg/kg/injection, schedule: Q01DX001 (ip), vehicle: saline with Tween-80): 92 % of control
T/C (endpoint: median survival time, dose: 200.0 mg/kg/injection, schedule: Q01DX001 (ip), vehicle: saline with Tween-80): 94 % of control
T/C (endpoint: median survival time, dose: 400.0 mg/kg/injection, schedule: Q01DX001 (ip), vehicle: saline with Tween-80): 95 % of control
T/C (endpoint: median survival time, dose: 800.0 mg/kg/injection, schedule: Q01DX001 (ip), vehicle: saline with Tween-80): 98 % of control

CC(O)CN1CCN(CC(C)O)CC1.[I][Pt+2][I] (stereo unspecified)
T/C (endpoint: mean survival time, dose: 25.0 mg/kg/injection, schedule: Q04DX003 (ip), vehicle: saline with Tween-80): 102 % of control
T/C (endpoint: mean survival time, dose: 50.0 mg/kg/injection, schedule: Q04DX003 (ip), vehicle: saline with Tween-80): 109 % of control
T/C [2]: 95 % of control
T/C [4]: 104 % of control
T/C [6]: 100 % of control

C[n+]1ccccc1SC12CC3CC(CC(C3)C1)C2
T/C (endpoint: mean survival time, dose: 2.5 mg/kg/injection, schedule: Q01DX009 (ip), vehicle: Klucel (hydroxypropylcellulose) (HPC)): 98 % of control
T/C (endpoint: mean survival time, dose: 5.0 mg/kg/injection, schedule: Q01DX009 (ip), vehicle: Klucel (hydroxypropylcellulose) (HPC)): 98 % of control
T/C (endpoint: mean survival time, dose: 10.0 mg/kg/injection, schedule: Q01DX009 (ip), vehicle: Klucel (hydroxypropylcellulose) (HPC)): 103 % of control

C[n+]1c(/C=N/NC(N)=S)ccc2ccccc21
T/C (endpoint: mean survival time, dose: 6.25 mg/kg/injection, schedule: Q01DX009 (ip), vehicle: saline with Tween-80): 102 % of control
T/C (endpoint: mean survival time, dose: 12.5 mg/kg/injection, schedule: Q01DX009 (ip), vehicle: saline with Tween-80): 106 % of control
T/C (endpoint: mean survival time, dose: 25.0 mg/kg/injection, schedule: Q01DX009 (ip), vehicle: saline with Tween-80): 108 % of control
T/C (endpoint: mean survival time, dose: 50.0 mg/kg/injection, schedule: Q01DX009 (ip), vehicle: saline with Tween-80): 100 % of control
T/C [1]: 91 % of control
T/C [3]: 94 % of control
T/C (endpoint: median survival time, dose: 6.25 mg/kg/injection, schedule: Q01DX009 (ip), vehicle: saline with Tween-80): 100 % of control
T/C (endpoint: median survival time, dose: 12.5 mg/kg/injection, schedule: Q01DX009 (ip), vehicle: saline with Tween-80): 100 % of control
T/C (endpoint: median survival time, dose: 25.0 mg/kg/injection, schedule: Q01DX009 (ip), vehicle: saline with Tween-80): 96 % of control
T/C (endpoint: median survival time, dose: 50.0 mg/kg/injection, schedule: Q01DX009 (ip), vehicle: saline with Tween-80): 96 % of control
T/C (endpoint: median survival time, dose: 100.0 mg/kg/injection, schedule: Q01DX009 (ip), vehicle: saline with Tween-80): 101 % of control
